# Test results: patent US4596802A, “Thiadiazole derivatives active on the central nervous system and pharmaceutical compositions” (Sanofi, priority 1984, dated 1986)
# What was measured:
# [1] = tested on: trembling induced by L-5-HTP; assay: Potentiation of the trembling induced by L-5-HTP; type: in vivo, female CD1 mice; conditions: Mus musculus, ip; mice, intraperitoneal, 1 hour before L-5-HTP 200 mg/kg i.p.; observed 20 minutes; read-out: ED50 (dose which induces trembling in 50% of the animals treated)
# Description: Its injection into mice causes a behavioral syndrome characterized in particular by violent trembling. Antidepressants which inhibit the recapture of serotonin or monoamine oxidase inhibitors (MAOI) potentiate this effect of […], 1959). The protocol described by […] (Biochem. Pharmacol., 2, 290-298, 1959) was used. […] The results are expressed as ED50, i.e. the dose which induces trembling in 50% of the animals treated.
# [2] = tested on: dopaminergic receptors; assay: Rotation behavior, unilateral striatal lesion by 6-hydroxydopamine; type: in vivo, female CD1 mice; conditions: Mus musculus, ip; mice, intraperitoneal, 1 hour after administration, rotations over 2 minutes; read-out: MED (minimum dose necessary to cause a significant reduction in the number of ipsilateral rotations)
# Experimental: This test is the one described by PROTAIS et al. (Journal de Pharmacologie,Paris, 7, 251-255, 1976). Female mice (Charles River, CD1) weighing from 25 to 30 g were subjected beforehand to a unilateral lesion of the striatum by the stereotaxic injection of 6-hydroxydopamine at a rate of 8 μg per animal. One week after this operation, the products were administered intraperitoneally to groups of 7 mice. 1 hour after administration of the product, the number of rotations was evaluated for 2 minutes. The rotations on the same side as the lesion were counted as positive and those on the opposite side as negative. The algebraic sum of the rotations for one group of treated animals was compared with that of the group of control animals which had only received the vehicle (aqueous solution of gum). In this test, stimulants of the dopaminergic receptors (apomorphine type) reduce the spontaneous rotations whereas indirect dopaminomimetic agents (amphetamine type) increase them. The results are expressed as MED (minimum effective dose), i.e. the minimum dose necessary to cause a significant reduction (Student's t-test) in the number of ipsilateral rotations spontaneously observed in the control animals.
# [3] = tested on: ptosis induced by reserpine; assay: Antagonism of the ptosis induced by reserpine; type: in vivo, female CD1 mice; conditions: Mus musculus, ip; mice, intraperitoneal; reserpine 2 mg/kg i.v. simultaneously; read at 1 hour; read-out: ED50 (dose which completely blocks the ptosis induced by reserpine in 50% of the animals)
# Experimental: This test, described by GOURET et al. (Journal de Pharmacologie, Paris, 8, 333-350, 1977), was performed on female CD1 mice (Charles River) weighing 20±1 g. Reserpine causes ptosis 1 hour after intravenous administration; the majority of antidepressants oppose this ptosis. The following protocol was chosen. The substances to be studied were administered intraperitoneally and the reserpine was simultaneously administered intravenously at a dose of 2 mg/kg. […] This test was performed on groups of 10 mice; the results are expressed as ED50 (50% effective dose), i.e. the dose which completely blocks the ptosis induced by reserpine in 50% of the animals.
# [4] = Acute toxicity, mortality within 24 hours, intraperitoneal; conditions: mouse, in vivo, ip, mice, dose of 300 mg/kg
# Experimental: The products to be studied were administered intraperitoneally in increasing doses to groups of 10 mice (CD1, Charles River; 20±1 g).
# From the results obtained, the 50% lethal dose, i.e. the dose causing the death of 50% of the animals, was determined for each of the products studied.
SMILES,ED50 [1] [mg/kg],minimal effective dose [2] [mg/kg],ED50 [3] [mg/kg],mortality at 24 h [4] [%]
O=[N+]([O-])c1ccc(-c2nnc(NCCN3CCOCC3)s2)cc1 [SR 43530],6.2,0.1,,
"Cl.Cl.Oc1ccc(-c2nnc(NCCN3CCOCC3)s2)cc1 [SR 43202 A, 2-(2-Morpholinoethylamino)-5-(4-hydroxyphenyl)-1,3,4-thiadiazole dihydrochloride]",,0.1,,
Clc1ccccc1-c1nnc(NCCN2CCOCC2)s1 [SR 95397 A],14.5,0.1,18,
"Cl.Cl.c1ccc(-c2nnc(NCCN3CCOCC3)s2)cc1 [SR 95311 A, 2-(2-Morpholinoethylamino)-5-phenyl-1,3,4-thiadiazole dihydrochloride]",6,0.1,4.6,
Clc1cccc(-c2nnc(NCCN3CCOCC3)s2)c1 [SR 95396 A],,0.1,11.3,
FC(F)(F)c1ccc(-c2nnc(NCCN3CCOCC3)s2)cc1 [SR 43604],,0.1,,
FC(F)(F)c1cccc(-c2nnc(NCCN3CCOCC3)s2)c1 [SR 43531 A],7.8,,,
"COc1ccc(-c2nnc(NCCN3CCOCC3)s2)cc1OC [SR 43295, 2-(2-morpholinoethylamino)-5-(3,4-dimethoxyphenyl)-1,3,4-thiadiazole]",,0.1,,
C1CCC(c2nnc(NCCN3CCOCC3)s2)C1 [SR 43057 A],,,23,
"Cl.Cl.Oc1ccc(-c2nnc(NCCN3CCOCC3)s2)cc1O [SR 43296 A, 2-(2-Morpholinoethylamino)-5-(3,4-dihydroxyphenyl)-1,3,4-thiadiazole dihydrochloride]",,0.1,,
"CN(C)CCNc1nnc(-c2ccccc2)s1 [Compound A, reference compound]",,,32,70
c1ccc(-c2ccc(-c3nnc(NCCN4CCOCC4)s3)cc2)cc1 [SR 43294],,0.1,,
c1ccc2c(-c3nnc(NCCN4CCOCC4)s3)cccc2c1 [SR 95559 A],,0.1,,
"CCN(CC)CCNc1nnc(-c2ccccc2)s1 [Compound B, reference compound]",,,43,90
"COc1ccc(-c2nnc(NCCN3CCOCC3)s2)cc1 [SR 43198, 2-(2-morpholinoethylamino)-5-(4-methoxyphenyl)-1,3,4-thiadiazole]",7,,,
"C1CCC(c2nnc(NCCN3CCOCC3)s2)CC1 [SR 43058, 2-(2-Morpholinoethylamino)-5-cyclohexyl-1,3,4-thiadiazole]",17,,22,
Clc1ccc(-c2nnc(NCCN3CCOCC3)s2)cc1 [SR 95340 A],3.6,,8.8,
